According to patent US8247594B2, “Insecticidal compounds” (Syngenta Crop Protection LLC, priority 2007, dated 2012):

Key:
Tetranychus urticae = Tetranychus urticae (two-spotted spider mite) leaf disc spray test; assay type: in vivo; settings: application rate 200 ppm, sprayed bean leaf discs, mixed ages, 8 days; egg, larval and adult mortality
Text: Tetranychus Urticae (Two-Spotted Spider Mite): Bean leaf discs on agar in 24-well microtiter plates were sprayed with test solutions at an application rate of 200 ppm. After drying, the leaf discs are infested with mite populations of mixed ages. 8 days later, discs are checked for egg mortality, larval mortality, and adult mortality.

Myzus persicae = Myzus persicae (green peach aphid) leaf disc spray test; assay type: in vivo; settings: application rate 200 ppm, sprayed sunflower leaf discs, mixed ages, 6 DAT; mortality
Method: Myzus Persicae (Green Peach Aphid): Sunflower leaf discs were placed on agar in a 24-well microtiter plate and sprayed with test solutions at an application rate of 200 ppm. After drying, the leaf discs were infested with an aphid population of mixed ages. After an incubation period of 6 DAT, samples were checked for mortality.

SMILES | control of Tetranychus urticae (Tetranychus urticae) | control of Myzus persicae (Myzus persicae)
N#Cc1ccc(C(=O)Nc2c(Br)cc(C(F)(C(F)(F)F)C(F)(F)F)cc2Br)cc1NC(=O)OCC(Cl)(Cl)Cl [A11] | at least 80% | 
CCc1cc(C(F)(C(F)(F)F)C(F)(F)C(F)(F)F)cc(CC)c1NC(=O)c1ccc(C#N)c(NC(=O)OCC(Cl)(Cl)Cl)c1 (centres unmarked) [A12] |  | at least 80%
